Experimental findings from patent publication US12377110B2, “Fospropofol methods and compositions” (Epalex Corporation, priority 2019, dated 2025) are described below.

A short description of this data set: Study A16 Part 1: PK of single ascending oral doses of fospropofol disodium (200 to 2000 mg), fasted healthy adults. It is filed as in vivo, human. The note with it: single dose of 800 mg (four 200 mg capsules). On the procedure:
Part 1 of Study A16 was a double-blind, randomized, placebo-controlled study to investigate the safety-tolerability and PK of oral administration of single ascending doses of fospropofol disodium to healthy adult male and female volunteers.
Subjects were healthy adults (age 18-55 years inclusive, BMI 18-29.9 kg/m^2). Separate cohorts of 12 subjects each were randomized to receive fospropofol disodium at doses of 200, 400, 800, 1000, 1200, 1600, or 2000 mg (n=10 per cohort) or matching placebo (n=2 per cohort).
Subjects were admitted to the clinical unit for an overnight fast (Day −1), administered study drug on Day 1, and remained in the clinical unit until Day 2.
Fospropofol disodium was formulated as powder in an HPMC capsule, each capsule containing 200 mg of fospropofol disodium (weight adjusted for water content). Placebo was administered as an appropriate number of matching capsules.
Based on PK results from the early cohorts, sampling times were optimized beginning with Cohort 3 (800 mg) to preclose, 5, 10, 15, 20, 25, 30, 37, and 45, minutes and 1, 2, 4, 6, and 9 hours after closing.

Take `CC(C)c1cccc(C(C)C)c1OCOP(=O)([O-])O.[Na+]` [fospropofol disodium]: the “Tolerability of propofol exposures” value is recorded as “well-tolerated”.
